Tested on: HCV replicon, genotype-1a variant with glutamine 30 changed to glutamate in the NS5A protein
Test: microbe, parasite or virus in culture
Type: cell-based, HCV genotype 1a
Settings: HCV replicon genotype 1a Q30E (Q→E) variant; test compound titrated with an NS5A-targeting compound (BMS-790052 fixed at 200 nM); ranking of synergist activity
Summary of the method: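 Synergy was assessed by combining several fixed amounts of an NS5A-targeting compound with a titration of the second compound of interest.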

SMILES	Fold-Synergistic 1a (Q30E) [fold]
CC(=O)N(C)C1(C(=O)N[C@H](c2nc(-c3ccc(-c4ccc(-c5c[nH]c([C@@H](NC(=O)C6(N(C)C(C)=O)CCC6)C(C)(C)C)n5)cc4)cc3)c[nH]2)C(C)(C)C)CCC1 [Compound L-12]	>100
CC(C)(C)[C@H](NC(=O)C1(C)OCCCC1(F)F)c1nc(-c2ccc(-c3ccc(-c4c[nH]c([C@@H](NC(=O)C5(C)OCCCC5(F)F)C(C)(C)C)n4)cc3)cc2)c[nH]1 (stereo partly shown) [Compound P-162]	>100
COC(=O)N[C@H](C(=O)N[C@H](c1ncc(-c2ccc(C#Cc3ccc(-c4cnc([C@@H](NC(=O)[C@@H](NC(=O)OC)C(C)C)C(C)C)[nH]4)cc3)cc2)[nH]1)C(C)C)C(C)C [Compound N-5]	>10
CC(C)(C)[C@H](NC(=O)C(F)(F)Sc1ccccc1)c1nc(-c2ccc(-c3ccc(-c4c[nH]c([C@@H](NC(=O)C(F)(F)Sc5ccccc5)C(C)(C)C)n4)cc3)cc2)c[nH]1 [Compound P-172]	>100
CC(C)(C)[C@H](NC(=O)C1CCC(=C(F)F)CC1)c1nc(-c2ccc(-c3ccc(-c4c[nH]c([C@@H](NC(=O)C5CCC(=C(F)F)CC5)C(C)(C)C)n4)cc3)cc2)c[nH]1 (stereo partly shown) [Compound N-121]	>100
CC(C)(CO)C(=O)N[C@H](c1nc(-c2ccc(-c3ccc(-c4c[nH]c([C@@H](NC(=O)C(C)(C)CO)C(C)(C)C)n4)cc3)cc2)c[nH]1)C(C)(C)C [Compound L-56]	>100
CC(C)(C)[C@H](NC(=O)[C@@]1(C)CC(F)(F)CCO1)c1nc(-c2ccc(-c3ccc(-c4c[nH]c([C@@H](NC(=O)[C@@]5(C)CC(F)(F)CCO5)C(C)(C)C)n4)cc3)cc2)c[nH]1 [Compound Y-75]	>100
COC(C)(C)C(=O)N[C@H](c1nc(-c2ccc(-c3ccc(-c4c[nH]c([C@@H](NC(=O)C(C)(C)OC)C5(C)CC5)n4)cc3)cc2)c[nH]1)C1(C)CC1 [Compound Y-63]	>100
CCC(CC)(NC(=O)OC(C)(C)C)C(=O)N[C@H](c1nc(-c2ccc(-c3ccc(-c4c[nH]c([C@@H](NC(=O)C(CC)(CC)NC(=O)OC(C)(C)C)C(C)(C)C)n4)cc3)cc2)c[nH]1)C(C)(C)C [Compound L-24]	>100
CC(C)[C@H](NC(=O)C(=O)N(CC(F)(F)F)C(C)C)c1nc(-c2ccc(-c3ccc(-c4c[nH]c([C@@H](NC(=O)C(=O)N(CC(F)(F)F)C(C)C)C(C)C)n4)cc3)cc2)c[nH]1 [Compound W-65]	>100
CC(C)(C)OC(=O)N1CCCC[C@H]1C(=O)N[C@H](c1nc(-c2ccc(-c3ccc(-c4c[nH]c([C@@H](NC(=O)[C@@H]5CCCCN5C(=O)OC(C)(C)C)C(C)(C)C)n4)cc3)cc2)c[nH]1)C(C)(C)C [Compound L-17]	>100
CC1([C@H](NC(=O)C(=O)N2CCCCCC2)c2nc(-c3ccc(-c4ccc(-c5c[nH]c([C@@H](NC(=O)C(=O)N6CCCCCC6)C6(C)CC6)n5)cc4)cc3)c[nH]2)CC1 [Compound W-57]	>100
O=C(C1Cc2ccccc21)N1CCC[C@H]1c1ncc(-c2ccc(-c3ccc(-c4cnc([C@@H]5CCCN5C(=O)C5Cc6ccccc65)[nH]4)cc3)cc2)[nH]1 (stereo partly shown) [Compound S-163]	<10
COC(C)(C)[C@H](NC(=O)C(C)(C)C)c1nc(-c2ccc(-c3ccc(-c4c[nH]c([C@@H](NC(=O)C(C)(C)C)C(C)(C)OC)n4)cc3)cc2)c[nH]1 [Compound P-9]	>100
CN(CC(F)(F)F)C(C)(C)C(=O)N[C@H](c1nc(-c2ccc(-c3ccc(-c4c[nH]c([C@@H](NC(=O)C(C)(C)N(C)CC(F)(F)F)C(C)(C)C)n4)cc3)cc2)c[nH]1)C(C)(C)C [Compound L-62]	>100
CC(C)(C)[C@H](NC(=O)C(C)(C)n1ncnn1)c1nc(-c2ccc(-c3ccc(-c4c[nH]c([C@@H](NC(=O)C(C)(C)n5ncnn5)C(C)(C)C)n4)cc3)cc2)c[nH]1 [Compound S-276]	>100

Source: patent publication US9326973B2, “Hepatitis C virus inhibitors” (priority 2012, dated 2016)
